Reference: PubChem BioAssay (NCI)
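Dose response: 5 concentrations. Exposure: 48 h. Format: 96-well plates. Endpoint: linear interpolation; highest concentration if not reached. TGI denotes the concentration required for complete inhibition of growth.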

Legend:
Assay in all cases: NCI anticancer screen, dose series, 48 h
SF-539 CNS = test system: SF-539 CNS
NCI-H522 lung = test system: NCI-H522 lung
SK-MEL-2 melanoma = test system: SK-MEL-2 melanoma
786-0 renal = test system: 786-0 renal
DU-145 prostate = test system: DU-145 prostate
CCRF-CEM leukemia = test system: CCRF-CEM leukemia
UO-31 renal = test system: UO-31 renal
SK-OV-3 ovarian = test system: SK-OV-3 ovarian
UACC-257 melanoma = test system: UACC-257 melanoma
SNB-19 CNS = test system: SNB-19 CNS
NCI-H460 lung = test system: NCI-H460 lung
COLO 205 colon = test system: COLO 205 colon
SF-295 CNS = test system: SF-295 CNS
TK-10 renal = test system: TK-10 renal
EKVX NSCLC = test system: EKVX NSCLC
SF-268 CNS = test system: SF-268 CNS
A549 NSCLC = test system: A549 NSCLC
A498 renal = test system: A498 renal
HCC-2998 colon = test system: HCC-2998 colon
MALME-3M melanoma = test system: MALME-3M melanoma
BT-549 breast = test system: BT-549 breast
SR leukemia = test system: SR leukemia
OVCAR-5 ovarian = test system: OVCAR-5 ovarian
NCI-H226 lung = test system: NCI-H226 lung
U251 CNS = test system: U251 CNS
M14 melanoma = test system: M14 melanoma
IGROV1 ovarian = test system: IGROV1 ovarian
OVCAR-3 ovarian = test system: OVCAR-3 ovarian
RPMI-8226 leukemia = test system: RPMI-8226 leukemia
ACHN renal = test system: ACHN renal
K-562 leukemia = test system: K-562 leukemia
LOX IMVI melanoma = test system: LOX IMVI melanoma
CAKI-1 renal = test system: CAKI-1 renal
SK-MEL-5 melanoma = test system: SK-MEL-5 melanoma
NCI/ADR-RES ovarian = test system: NCI/ADR-RES ovarian
T-47D breast = test system: T-47D breast
OVCAR-8 ovarian = test system: OVCAR-8 ovarian
MCF7 breast = test system: MCF7 breast
SW-620 colon = test system: SW-620 colon
SK-MEL-28 melanoma = test system: SK-MEL-28 melanoma
HCT-15 colon = test system: HCT-15 colon
HOP-62 NSCLC = test system: HOP-62 NSCLC
SN12C renal = test system: SN12C renal
HT29 colon = test system: HT29 colon
RXF 393 renal = test system: RXF 393 renal
MDA-MB-231 breast = test system: MDA-MB-231 breast
KM12 colon = test system: KM12 colon
HCT-116 colon = test system: HCT-116 colon
PC-3 prostate = test system: PC-3 prostate
HL-60(TB) leukemia = test system: HL-60(TB) leukemia
MDA-MB-435 = test system: MDA-MB-435
UACC-62 melanoma = test system: UACC-62 melanoma
NCI-H23 lung = test system: NCI-H23 lung
HS 578T breast = test system: HS 578T breast

With `CCOC(=O)C(Br)(C(N)=O)C1(O)OC(c2ccccc2)=C(Br)C1=O` (centres undefined) the TGI (SF-539 CNS) was 32.3 µM, the TGI (NCI-H522 lung) was 11.7 µM and the TGI (SK-MEL-2 melanoma) was over 100 µM. It also gave a TGI (786-0 renal) of 41.9 µM, a TGI (DU-145 prostate) of over 100 µM and a TGI (CCRF-CEM leukemia) of 10.2 µM. It also gave a TGI (UO-31 renal) of 44 µM, a TGI (SK-OV-3 ovarian) of over 100 µM and a TGI (UACC-257 melanoma) of over 100 µM. For the same molecule, the TGI (SNB-19 CNS) was over 100 µM, the TGI (NCI-H460 lung) was over 100 µM and the TGI (COLO 205 colon) was 30.7 µM. It also gave a TGI (SF-295 CNS) of over 100 µM, a TGI (TK-10 renal) of 33.3 µM and a TGI (EKVX NSCLC) of 46.8 µM. For the same molecule, the TGI (SF-268 CNS) was 41.5 µM, the TGI (A549 NSCLC) was 66.8 µM and the TGI (A498 renal) was over 100 µM. It also gave a TGI (HCC-2998 colon) of 35 µM, a TGI (MALME-3M melanoma) of 55.6 µM and a TGI (BT-549 breast) of 34.3 µM. For the same molecule, the TGI (SR leukemia) was 41.3 µM, the TGI (OVCAR-5 ovarian) was 37 µM and the TGI (NCI-H226 lung) was 42.3 µM. The TGI (U251 CNS) was 32.6 µM, the TGI (M14 melanoma) was 62.9 µM and the TGI (IGROV1 ovarian) was 43.5 µM. For the same molecule, the TGI (OVCAR-3 ovarian) was 55 µM, the TGI (RPMI-8226 leukemia) was 27.7 µM and the TGI (ACHN renal) was 32.3 µM. It also gave a TGI (K-562 leukemia) of 53.7 µM, a TGI (LOX IMVI melanoma) of 46.1 µM and a TGI (CAKI-1 renal) of 40.1 µM. For the same molecule, the TGI (SK-MEL-5 melanoma) was 60.2 µM, the TGI (NCI/ADR-RES ovarian) was over 100 µM and the TGI (T-47D breast) was 59.6 µM. The TGI (OVCAR-8 ovarian) was 33.3 µM, the TGI (MCF7 breast) was 41 µM and the TGI (SW-620 colon) was 43.1 µM. For the same molecule, the TGI (SK-MEL-28 melanoma) was over 100 µM, the TGI (HCT-15 colon) was 34.8 µM and the TGI (HOP-62 NSCLC) was 81.2 µM. For the same molecule, the TGI (SN12C renal) was 31.7 µM, the TGI (HT29 colon) was 39.3 µM and the TGI (RXF 393 renal) was 34.4 µM. For the same molecule, the TGI (MDA-MB-231 breast) was 33.6 µM, the TGI (KM12 colon) was over 100 µM and the TGI (HCT-116 colon) was 36.5 µM. The TGI (PC-3 prostate) was 36.3 µM, the TGI (HL-60(TB) leukemia) was over 100 µM and the TGI (MDA-MB-435) was over 100 µM. For the same molecule, the TGI (UACC-62 melanoma) was 92.9 µM, the TGI (NCI-H23 lung) was 53.7 µM and the TGI (HS 578T breast) was over 100 µM.
